Holding throughout (format): physicochemical
The nature of data set [1]: decomposition of rocuronium bromide in water at room temperature. Conditions: aqueous solution, in 24 hours. The text has this:
While freeze drying of the aqueous solution did reduce the isobutyl acetate level to an acceptable level of 0.26%, the impurity levels rose to 0.33%. […] This inherent instability in aqueous solution may explain thc observed rise in the impurities level in our hands.

Data set [2] is described as follows: hygroscopicity test at relative humidity of about 45%. Conditions: within 24 hours, sample containing 3.1% acetic acid (stabilized solid of the invention). The protocol:
In another aspect, the present invention relates to an improved process for preparing a stable solid comprising substantially pure rocuronium bromide, which is substantially non-hygroscopic, because when subjected to hygroscopisity test at relative humidity of about 45%, a sample containing 3.1% acetic acid absorbed only about 2% water within 24 hours.

Data set [3] can be described thus: nature of product freeze dried from unbuffered degassed water (Example 5). As to conditions: Example 5: dissolved in degassed water and freeze dried, no buffer. The protocol:
Rocuronium bromide (2 grams) prepared according to example 1 and dried in a manner similar to entries 1 and 2 in table 2 (see example 4), was dissolved in degassed water (30 ml) and freeze dried.

The text below walks through data of US20060058275A1, “Processes for preparing stabilized, highly pure rocuronium bromide” (priority 2004, published 2006).

Turning to `C=CC[N+]1(C2CC3C4CC[C@H]5C[C@H](O)C(N6CCOCC6)C[C@]5(C)C4CC[C@]3(C)[C@H]2OC(C)=O)CCCC1.[Br-]` (stereo partly drawn) [rocuronium bromide, 1-[(2β,3α,5α,16β,17β)-17-acetoxy-3-hydroxy-2-(4-morpholinyl)-androstan-16-yl-]-1-(2-propenyl)pyrrolidinium bromide], in data set [1], the “decomposition rate in water” value is 0.25-0.5%. Further, the water absorbed entry in data set [2] is “about 2%”. In addition, in data set [3], the hygroscopicity of product result was “highly hygroscopic”.
